Source: patent publication US8815535B2, “Disk diffusion assay for oritavancin” (The Medicines Company, priority 2011, dated 2014)
Where two headings read alike, the source gives them in different places.

Key:
[1] = test system: MSSA ATCC 25923; experiment: Disk diffusion assay (zone of inhibition); assay type: cell-based, Staphylococcus aureus; details: Staphylococcus aureus; for zone of inhibition at 100 µg/disc: 100 μg in 4% P80/Span 80 (1:1); for zone of inhibition at 200 µg/disc: 200 μg in 4% P80/Span 80 (1:1); for zone of inhibition at 180 µg/disc: 180 μg; for zone of inhibition at 270 µg/disc: 270 μg
Description: (§1) The study was designed to identify conditions that improve oritavancin diffusion in agar and consequently yield a zone diameter ≧15 mm for the CLSI quality control strain MSSA ATCC 25923. Excipients that increased the disk diffusion of oritavancin in agar relative to disks containing only oritavancin were identified and selected for further study. […] A prediffusion step at room temperature was introduced to maximize oritavancin diffusion prior to initiation of bacterial growth. In this step, the antimicrobial disks were placed on agar plates seeded with a bacterial isolate and incubated at room temperature for 3 hours. Plates were then incubated overnight at 37° C. Zone diameters around the disks in which bacterial growth was inhibited were measured with a ruler and reported in millimeters.
(§2) Ethanol-sterilized Whatman paper disks (6 mm diameter) were allowed to dry then impregnated with 20 microliters of oritavancin solution containing total amounts ranging from 90 to 360 micrograms. Disks were allowed to dry at room temperature for various times prior to use.
Bacterial suspensions were prepared and adjusted to an optical density of 0.1 at 600 nm. […] The plate was swabbed a second time, perpendicular to the orientation of the first swab. To assess the impact of prediffusion on diameter of inhibition zones, two disks were immediately placed on one half of the plate and the plate was incubated for 3 hours at room temperature. After 3 hours, two additional disks were placed on the other half of the plate then the plate was incubated overnight at 37° C. Zone diameters were measured with a ruler and reported in millimeters. […]
Oritavancin powder was dissolved in freshly-prepared solutions of the indicated excipients at concentrations of 0.625, 1.25, 2.5, 5, and 10 mg/ml (adjusted for potency based on lot 875561L00 purity of 83.1%) by vortexing for a minimum of 5 minutes. Oritavancin solutions in the various excipients, while not visually clear, were free from any apparent particulates as assessed visually. Sterile Oxoid blank disks were impregnated with 20 μl of these oritavancin solutions, resulting in oritavancin disk loads ranging from 12.5 to 200 μg. Unless indicated otherwise, disks were allowed to dry overnight at room temperature prior to use.
[…] Swabbing was continued at a right angle and then at an oblique angle to the first and second swabs. Disks were placed upon the seeded plates with sterile forceps. Plates were then incubated overnight at 37° C. and inhibition zone diameters were measured with a ruler and reported in millimeters.

[2] = test system: MRSA NRS121; experiment: Disk diffusion assay (zone of inhibition); assay type: cell-based; details: Staphylococcus aureus, read-out: Zone diameter (mm ± SD), NRS121, 360 μg in 5% P80
Description: as §1, §2
Bacterial suspensions were prepared and adjusted to an optical density of 0.1 at 600 nm. Standard cation-adjusted Mueller Hinton agar plates (90 mm diameter) were seeded with bacterial suspensions by initially swabbing the center of plate then moving outward towards the edge. The plate was swabbed a second time, perpendicular to the orientation of the first swab. To assess the impact of prediffusion on diameter of inhibition zones, two disks were immediately placed on one half of the plate and the plate was incubated for 3 hours at room temperature. After 3 hours, two additional disks were placed on the other half of the plate then the plate was incubated overnight at 37° C. Zone diameters were measured with a ruler and reported in millimeters.

[3] = read-out: Inhibition zone diameter, 25923, calcium alginate swab, dried overnight
[4] = read-out: Inhibition zone diameter, 25923, cotton swab, dried overnight, estimate of diameter
[5] = read-out: Inhibition zone diameter, MSSA ATCC 25923, Oxoid disk, 2.5% P80, stored 7 days, prediffusion 3 h at 4° C., duplicates
[6] = read-out: Inhibition zone diameter, MSSA ATCC 25923, Oxoid disk, 5% P80, stored 7 days, prediffusion 3 h at 4° C., duplicates
[7] = read-out: Inhibition zone diameter, MSSA ATCC 25923, Whatman #5 disk, 2.5% P80, stored 7 days, prediffusion 3 h at 4° C., duplicates
[8] = read-out: Inhibition zone diameter, MSSA ATCC 25923, Whatman #5 disk, 5% P80, stored 7 days, prediffusion 3 h at 4° C., duplicates

CN[C@H](CC(C)C)C(=O)N[C@H]1C(=O)N[C@@H](CC(N)=O)C(=O)N[C@H]2C(=O)N[C@H]3C(=O)N[C@H](C(=O)N[C@H](C(=O)O)c4cc(O)cc(O)c4-c4cc3ccc4O)[C@H](O[C@H]3C[C@](C)(N)[C@@H](O)[C@H](C)O3)c3ccc(c(Cl)c3)Oc3cc2cc(c3O[C@@H]2O[C@H](CO)[C@@H](O)[C@H](O)[C@H]2O[C@H]2C[C@](C)(NCc3ccc(-c4ccc(Cl)cc4)cc3)[C@@H](O)[C@H](C)O2)Oc2ccc(cc2Cl)[C@H]1O [oritavancin, N-(4-(4-chlorophenyl)benzyl)A82846B]
zone of inhibition at 12.5 µg/disc ([1]; read-out: Inhibition zone diameter, 25923, 12.5 μg in 4% P80/Span 80 (1:1), cotton swab, dried overnight, estimate of diameter): 27 mm
zone of inhibition at 25 µg/disc ([1]; read-out: Inhibition zone diameter, 25923, 25 μg in 4% P80/Span 80 (1:1), cotton swab (Table 14), dried overnight, estimate of diameter): 30 mm
zone of inhibition at 50 µg/disc ([1]; read-out: Inhibition zone diameter, 25923, 50 μg in 4% P80/Span 80 (1:1), calcium alginate swab, dried overnight): 19 mm
zone of inhibition at 50 µg/disc ([1]; read-out: Inhibition zone diameter, 25923, 50 μg in 4% P80/Span 80 (1:1), cotton swab, dried overnight, estimate of diameter): 24 mm
zone of inhibition at 100 µg/disc [1, 3]: 14 mm
zone of inhibition at 100 µg/disc [1, 4]: 21 mm
zone of inhibition at 200 µg/disc [1, 3]: 11 mm
zone of inhibition at 200 µg/disc [1, 4]: 15 mm
zone of inhibition at 1250 µg/mL ([1]; read-out: Inhibition zone diameter, ATCC 25923, 25 μg (20 μl of 1.25 mg/ml) in 4% P80/Span 80 (1:1), calcium alginate swab, dried overnight): 21 mm
zone of inhibition at 50 µg/disc ([1]; read-out: Inhibition zone diameter, ATCC 25923, 50 μg, 4% P80/Span 80 ratio 50:50, dried overnight, estimate of diameter): 23 mm
zone of inhibition at 50 µg/disc ([1]; read-out: Inhibition zone diameter, ATCC 25923, 50 μg, 4% P80/Span 80 ratio 60:40, dried overnight, estimate of diameter): 21 mm
zone of inhibition at 50 µg/disc ([1]; read-out: Inhibition zone diameter, ATCC 25923, 50 μg, 4% P80/Span 80 ratio 70:30, dried overnight, estimate of diameter): 19 mm
zone of inhibition at 50 µg/disc ([1]; read-out: Inhibition zone diameter, ATCC 25923, 50 μg, 4% P80/Span 80 ratio 80:20, dried overnight, estimate of diameter): 16 mm
zone of inhibition at 50 µg/disc ([1]; read-out: Inhibition zone diameter, ATCC 25923, 50 μg, 4% P80/Span 80 ratio 90:10, dried overnight, estimate of diameter): 13 mm
zone of inhibition at 1250 µg/mL ([1]; read-out: Inhibition zone diameter, ATCC 25923, 20 μl of 1.25 mg/ml oritavancin in 1% poly(ethylene glycol) sorbitol hexaoleate): ≤ 15 mm
zone of inhibition at 1250 µg/mL ([1]; read-out: Inhibition zone diameter, ATCC 25923, 20 μl of 1.25 mg/ml oritavancin in 5% Brij 30): ≤ 15 mm
zone of inhibition at 1250 µg/mL ([1]; read-out: Inhibition zone diameter, ATCC 25923, 20 μl of 1.25 mg/ml oritavancin in 5% Merpol SE): ≤ 15 mm
zone of inhibition at 18000 µg/mL ([1]; read-out: Inhibition zone diameter, ATCC 25923, Oxoid disks, 20 μl of 18 mg/ml oritavancin in 5% P80, stored 30 days at room temperature, prediffusion 6 hours at 4° C.): > 15 mm
zone of inhibition at 1250 µg/mL ([1]; read-out: Inhibition zone diameter, MSSA ATCC 25923, 20 μl of 1.25 mg/ml in 4% P80/Span 80 (1:1), cotton swab (FIG. 2), dried overnight): ~24 mm
zone of inhibition at 1250 µg/mL ([1]; read-out: Inhibition zone diameter, MSSA ATCC 25923, 20 μl of 1.25 mg/ml in 4% P80/Span 80 (1:1), flocked swab (FIG. 2), dried overnight): ~24 mm
zone of inhibition at 1250 µg/mL ([1]; read-out: Inhibition zone diameter, MSSA ATCC 25923, 20 μl of 1.25 mg/ml in 4% P80/Span 80 (1:1), foam swab (FIG. 2), dried overnight): ~26 mm
zone of inhibition at 1250 µg/mL ([1]; read-out: Inhibition zone diameter, MSSA ATCC 25923, 20 μl of 1.25 mg/ml in 4% P80/Span 80 (1:1), polyester swab (FIG. 2), dried overnight): ~24 mm
zone of inhibition at 1250 µg/mL ([1]; read-out: Inhibition zone diameter, MSSA ATCC 25923, 20 μl of 1.25 mg/ml in 4% P80/Span 80 (1:1), rayon swab (FIG. 2), dried overnight): ~22 mm
zone of inhibition at 180 µg/disc [1, 5]: 12.5 mm
zone of inhibition at 180 µg/disc [1, 6]: 12 mm
zone of inhibition at 270 µg/disc [1, 5]: 13 mm
zone of inhibition at 270 µg/disc [1, 6]: 13 mm
zone of inhibition at 360 µg/disc ([1]; read-out: Inhibition zone diameter, MSSA ATCC 25923, Oxoid disk, 360 μg, 2.5% P80, stored 7 days, prediffusion 3 h at 4° C., duplicates): 13 mm
zone of inhibition at 360 µg/disc ([1]; read-out: Inhibition zone diameter, MSSA ATCC 25923, Oxoid disk, 360 μg, 5% P80, stored 7 days, prediffusion 3 h at 4° C., duplicates): 14 mm
zone of inhibition at 180 µg/disc [1, 7]: 15.5 mm
zone of inhibition at 180 µg/disc [1, 8]: 14.5 mm
zone of inhibition at 270 µg/disc [1, 7]: 15.5 mm
zone of inhibition at 270 µg/disc [1, 8]: 16 mm
zone of inhibition at 360 µg/disc ([1]; read-out: Inhibition zone diameter, MSSA ATCC 25923, Whatman #5 disk, 360 μg, 2.5% P80, stored 7 days, prediffusion 3 h at 4° C., duplicates): 15.5 mm
zone of inhibition at 360 µg/disc ([1]; read-out: Inhibition zone diameter, MSSA ATCC 25923, Whatman #5 disk, 360 μg, 5% P80, stored 7 days, prediffusion 3 h at 4° C., duplicates): 16 mm
zone of inhibition at 360 µg/disc ([1]; read-out: Zone diameter (mm ± SD), ATCC 25923, 360 μg in 5% P80, Average of experiments, no prediffusion): 14.9 ± 0.5 mm
zone of inhibition at 360 µg/disc ([1]; read-out: Zone diameter (mm ± SD), ATCC 25923, 360 μg in 5% P80, Average of experiments, prediffusion): 17.5 ± 0.6 mm
zone of inhibition at 360 µg/disc ([1]; read-out: Zone diameter (mm ± SD), ATCC 25923, 360 μg in 5% P80, Experiment 1, disks stored 14 days, 3 h prediffusion at room temperature): 18 mm
zone of inhibition at 360 µg/disc ([1]; read-out: Zone diameter (mm ± SD), ATCC 25923, 360 μg in 5% P80, Experiment 2, disks stored 8 days, 3 h prediffusion at room temperature): 17 mm
zone of inhibition at 360 µg/disc ([2]; 192 h, Experiment 2, disks stored 8 days, no prediffusion): 15 mm
zone of inhibition at 360 µg/disc ([2]; Average, no prediffusion): 15 mm
zone of inhibition at 360 µg/disc ([2]; Average, prediffusion): 17.3 ± 0.4 mm
zone of inhibition at 360 µg/disc ([2]; Experiment 2, disks stored 8 days, 3 h prediffusion at room temperature): 17.3 ± 0.4 mm
